Laboratory results taken from paper PMC10600239, “Selective MCL-1 inhibitor ABBV-467 is efficacious in tumor models but is associated with cardiac troponin increases in patients” (Communications Medicine, 2023).

Assays:
Experiment in all cases: Off-target profiling (Supplementary Data 1)
[1] = target: off-target receptors, ion channels, and transporters (Homo sapiens, UniProt O60674); conditions: TR-FRET Kinome; Invitrogen A-1167389.7 .006(Subs Conc)
[2] = target: off-target receptors, ion channels, and transporters (Homo sapiens, UniProt O75716); conditions: TR-FRET Kinome; Invitrogen A-1213250.2 .0125(Subs Conc)
[3] = target: off-target receptors, ion channels, and transporters (Homo sapiens, UniProt O95819); conditions: TR-FRET Kinome; Invitrogen A-1180691.2 .1(Subs Conc)
[4] = target: off-target receptors, ion channels, and transporters (Homo sapiens, UniProt P00533); conditions: TR-FRET Kinome; Invitrogen A-1224127.6 .1(Subs Conc)
[5] = target: off-target receptors, ion channels, and transporters (Homo sapiens, UniProt P06239); conditions: TR-FRET Kinome; Invitrogen A-1167389.7 .1(Subs Conc)
[6] = target: off-target receptors, ion channels, and transporters (Homo sapiens, UniProt P08581); conditions: TR-FRET Kinome; Invitrogen A-1196581.2 .003(Subs Conc)
[7] = target: off-target receptors, ion channels, and transporters (Homo sapiens, UniProt P08588)
Sequence of off-target receptors, ion channels, and transporters (Homo sapiens, UniProt P08588) (P08588 whole entry): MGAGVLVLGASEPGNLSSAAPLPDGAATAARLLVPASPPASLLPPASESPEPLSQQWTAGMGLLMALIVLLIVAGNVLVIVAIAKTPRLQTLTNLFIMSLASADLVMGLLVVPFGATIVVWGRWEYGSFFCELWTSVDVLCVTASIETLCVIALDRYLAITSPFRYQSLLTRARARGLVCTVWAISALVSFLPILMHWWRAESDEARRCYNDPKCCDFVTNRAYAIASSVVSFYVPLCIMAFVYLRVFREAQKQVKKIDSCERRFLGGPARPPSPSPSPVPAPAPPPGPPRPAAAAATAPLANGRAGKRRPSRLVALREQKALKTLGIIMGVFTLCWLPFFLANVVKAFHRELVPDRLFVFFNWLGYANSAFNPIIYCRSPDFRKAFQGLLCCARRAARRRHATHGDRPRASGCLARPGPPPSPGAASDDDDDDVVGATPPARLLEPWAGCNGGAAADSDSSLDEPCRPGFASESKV

[8] = target: off-target receptors, ion channels, and transporters (Homo sapiens, UniProt P08913)
Sequence of off-target receptors, ion channels, and transporters (Homo sapiens, UniProt P08913) (P08913 whole entry): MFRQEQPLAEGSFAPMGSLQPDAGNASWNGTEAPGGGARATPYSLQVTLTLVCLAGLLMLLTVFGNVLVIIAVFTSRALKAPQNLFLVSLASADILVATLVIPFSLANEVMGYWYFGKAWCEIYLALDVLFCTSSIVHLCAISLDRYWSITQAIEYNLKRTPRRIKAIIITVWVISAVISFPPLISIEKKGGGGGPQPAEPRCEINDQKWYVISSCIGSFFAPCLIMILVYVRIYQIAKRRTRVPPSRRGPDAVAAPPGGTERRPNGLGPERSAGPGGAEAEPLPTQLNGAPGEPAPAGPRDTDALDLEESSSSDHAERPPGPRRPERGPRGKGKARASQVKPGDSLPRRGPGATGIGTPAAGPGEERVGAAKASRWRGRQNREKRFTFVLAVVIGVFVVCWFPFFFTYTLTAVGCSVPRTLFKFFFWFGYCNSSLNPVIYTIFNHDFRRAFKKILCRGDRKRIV

[9] = target: off-target receptors, ion channels, and transporters (Homo sapiens, UniProt P15056); conditions: TR-FRET Kinome; Invitrogen A-1196442.2 .05(Subs Conc)
[10] = target: off-target receptors, ion channels, and transporters (Homo sapiens, UniProt P21554)
Sequence of off-target receptors, ion channels, and transporters (Homo sapiens, UniProt P21554) (P21554 whole entry): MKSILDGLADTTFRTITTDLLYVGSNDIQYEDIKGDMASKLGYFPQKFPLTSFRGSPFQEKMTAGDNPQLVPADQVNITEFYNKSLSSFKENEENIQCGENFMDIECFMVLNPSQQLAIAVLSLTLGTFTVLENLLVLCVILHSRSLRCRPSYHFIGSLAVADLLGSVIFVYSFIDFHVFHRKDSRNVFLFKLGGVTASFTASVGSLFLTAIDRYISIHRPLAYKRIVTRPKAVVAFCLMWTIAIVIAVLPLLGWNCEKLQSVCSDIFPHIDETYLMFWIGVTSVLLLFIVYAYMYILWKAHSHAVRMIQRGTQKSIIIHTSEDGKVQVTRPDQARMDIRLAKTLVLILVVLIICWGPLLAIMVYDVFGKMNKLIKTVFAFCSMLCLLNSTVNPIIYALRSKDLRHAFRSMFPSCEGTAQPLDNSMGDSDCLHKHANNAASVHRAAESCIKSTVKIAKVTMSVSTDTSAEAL

[11] = target: off-target receptors, ion channels, and transporters (Homo sapiens, UniProt P25101)
Sequence of off-target receptors, ion channels, and transporters (Homo sapiens, UniProt P25101) (P25101 21-427): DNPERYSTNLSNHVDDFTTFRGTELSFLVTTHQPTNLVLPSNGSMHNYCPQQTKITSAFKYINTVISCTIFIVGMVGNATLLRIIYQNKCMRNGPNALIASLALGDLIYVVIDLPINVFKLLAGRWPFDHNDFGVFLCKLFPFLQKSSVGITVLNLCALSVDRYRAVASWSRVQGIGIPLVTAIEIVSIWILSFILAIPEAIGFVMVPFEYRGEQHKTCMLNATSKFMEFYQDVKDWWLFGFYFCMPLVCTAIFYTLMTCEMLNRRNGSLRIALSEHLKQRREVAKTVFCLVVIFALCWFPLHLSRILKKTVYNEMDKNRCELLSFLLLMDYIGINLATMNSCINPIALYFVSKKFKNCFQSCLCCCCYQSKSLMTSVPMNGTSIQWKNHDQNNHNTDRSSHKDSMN

[12] = target: off-target receptors, ion channels, and transporters (Homo sapiens, UniProt P31749); conditions: TR-FRET Kinome; SignalChem A-1169612.6 .2(Subs Conc)
[13] = target: off-target receptors, ion channels, and transporters (Homo sapiens, UniProt P35372)
Sequence of off-target receptors, ion channels, and transporters (Homo sapiens, UniProt P35372) (P35372 whole entry): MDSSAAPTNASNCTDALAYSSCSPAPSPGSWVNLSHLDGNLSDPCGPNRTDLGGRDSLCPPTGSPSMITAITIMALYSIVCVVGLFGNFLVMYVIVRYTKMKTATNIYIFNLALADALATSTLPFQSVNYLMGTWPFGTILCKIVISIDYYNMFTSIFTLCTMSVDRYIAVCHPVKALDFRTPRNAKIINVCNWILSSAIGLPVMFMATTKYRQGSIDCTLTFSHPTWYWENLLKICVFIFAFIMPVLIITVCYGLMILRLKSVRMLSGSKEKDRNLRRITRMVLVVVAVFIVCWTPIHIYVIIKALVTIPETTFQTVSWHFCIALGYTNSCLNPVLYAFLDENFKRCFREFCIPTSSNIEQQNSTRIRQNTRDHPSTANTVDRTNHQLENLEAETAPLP

[14] = target: off-target receptors, ion channels, and transporters (Homo sapiens, UniProt P42680); conditions: TR-FRET Kinome; SignalChem A-1214384.2 .02(Subs Conc)
[15] = target: off-target receptors, ion channels, and transporters (Homo sapiens, UniProt P49336); conditions: TR-FRET Kinome; Invitrogen A-1167389.7 .025(Subs Conc)
[16] = target: off-target receptors, ion channels, and transporters (Homo sapiens, UniProt P51812); conditions: TR-FRET Kinome; Invitrogen A-1169612.6 .0015(Subs Conc)
Sequence of off-target receptors, ion channels, and transporters (Homo sapiens, UniProt P51812) (P51812 whole entry): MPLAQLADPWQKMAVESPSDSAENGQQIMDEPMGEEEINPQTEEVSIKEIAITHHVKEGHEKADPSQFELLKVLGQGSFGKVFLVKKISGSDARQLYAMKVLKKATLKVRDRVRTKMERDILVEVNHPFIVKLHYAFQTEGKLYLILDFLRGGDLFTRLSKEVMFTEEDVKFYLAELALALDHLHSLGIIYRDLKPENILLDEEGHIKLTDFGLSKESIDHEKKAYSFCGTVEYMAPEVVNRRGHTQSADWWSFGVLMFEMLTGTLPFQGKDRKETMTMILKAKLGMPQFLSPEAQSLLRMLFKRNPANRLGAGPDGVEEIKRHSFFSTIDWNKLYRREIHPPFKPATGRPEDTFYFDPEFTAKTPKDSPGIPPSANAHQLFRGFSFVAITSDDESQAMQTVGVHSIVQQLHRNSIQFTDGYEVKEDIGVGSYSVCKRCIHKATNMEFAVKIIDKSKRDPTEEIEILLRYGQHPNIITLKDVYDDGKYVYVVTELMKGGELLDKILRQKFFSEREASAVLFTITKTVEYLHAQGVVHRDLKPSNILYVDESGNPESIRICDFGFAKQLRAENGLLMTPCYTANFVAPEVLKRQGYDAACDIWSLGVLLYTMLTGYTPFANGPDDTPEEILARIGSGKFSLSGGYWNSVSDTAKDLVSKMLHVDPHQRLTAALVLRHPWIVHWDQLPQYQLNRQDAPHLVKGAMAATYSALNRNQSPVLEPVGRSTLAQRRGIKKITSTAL

[17] = target: off-target receptors, ion channels, and transporters (Homo sapiens, UniProt P52333); conditions: TR-FRET Kinome; Invitrogen A-1180691.2 .05(Subs Conc)
[18] = target: off-target receptors, ion channels, and transporters (Homo sapiens, UniProt P57059); conditions: TR-FRET Kinome; Invitrogen A-1167389.7 .005(Subs Conc)
[19] = target: off-target receptors, ion channels, and transporters (Homo sapiens, UniProt Q06187); conditions: TR-FRET Kinome; Invitrogen A-1167389.7 .2(Subs Conc)
[20] = target: off-target receptors, ion channels, and transporters (Homo sapiens, UniProt Q13043); conditions: TR-FRET Kinome; Invitrogen A-1167389.7 .025(Subs Conc)
[21] = target: off-target receptors, ion channels, and transporters (Homo sapiens, UniProt Q14432); conditions: Bioprofiling 6pt Antag; cAMP
[22] = target: off-target receptors, ion channels, and transporters (Homo sapiens, UniProt Q16288); conditions: TR-FRET Kinome; Invitrogen A-1202211.2 .025(Subs Conc)
Sequence of off-target receptors, ion channels, and transporters (Homo sapiens, UniProt Q16288) (Q16288 32-839): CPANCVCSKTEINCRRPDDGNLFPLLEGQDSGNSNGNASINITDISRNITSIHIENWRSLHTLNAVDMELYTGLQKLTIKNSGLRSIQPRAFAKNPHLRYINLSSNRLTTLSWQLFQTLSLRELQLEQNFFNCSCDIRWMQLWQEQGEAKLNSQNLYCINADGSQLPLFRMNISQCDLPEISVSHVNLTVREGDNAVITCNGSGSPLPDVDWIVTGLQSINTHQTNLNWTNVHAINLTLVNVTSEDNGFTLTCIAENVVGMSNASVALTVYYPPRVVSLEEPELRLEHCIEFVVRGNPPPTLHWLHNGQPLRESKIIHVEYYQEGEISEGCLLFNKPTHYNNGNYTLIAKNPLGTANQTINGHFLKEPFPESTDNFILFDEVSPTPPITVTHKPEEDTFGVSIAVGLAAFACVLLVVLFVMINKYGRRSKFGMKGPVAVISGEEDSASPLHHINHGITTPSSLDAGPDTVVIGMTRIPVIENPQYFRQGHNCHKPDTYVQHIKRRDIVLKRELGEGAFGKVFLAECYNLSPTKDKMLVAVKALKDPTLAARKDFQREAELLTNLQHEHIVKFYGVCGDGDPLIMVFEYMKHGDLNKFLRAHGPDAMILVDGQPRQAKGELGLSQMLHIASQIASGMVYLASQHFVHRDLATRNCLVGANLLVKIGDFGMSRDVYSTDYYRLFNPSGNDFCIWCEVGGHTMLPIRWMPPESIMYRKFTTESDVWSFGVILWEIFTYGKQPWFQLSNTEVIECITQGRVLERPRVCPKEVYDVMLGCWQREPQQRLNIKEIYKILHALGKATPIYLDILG

[23] = target: off-target receptors, ion channels, and transporters (Homo sapiens, UniProt Q92918); conditions: TR-FRET Kinome; SignalChem A-1169612.6 .025(Subs Conc)
Sequence of off-target receptors, ion channels, and transporters (Homo sapiens, UniProt Q92918) (Q92918 whole entry): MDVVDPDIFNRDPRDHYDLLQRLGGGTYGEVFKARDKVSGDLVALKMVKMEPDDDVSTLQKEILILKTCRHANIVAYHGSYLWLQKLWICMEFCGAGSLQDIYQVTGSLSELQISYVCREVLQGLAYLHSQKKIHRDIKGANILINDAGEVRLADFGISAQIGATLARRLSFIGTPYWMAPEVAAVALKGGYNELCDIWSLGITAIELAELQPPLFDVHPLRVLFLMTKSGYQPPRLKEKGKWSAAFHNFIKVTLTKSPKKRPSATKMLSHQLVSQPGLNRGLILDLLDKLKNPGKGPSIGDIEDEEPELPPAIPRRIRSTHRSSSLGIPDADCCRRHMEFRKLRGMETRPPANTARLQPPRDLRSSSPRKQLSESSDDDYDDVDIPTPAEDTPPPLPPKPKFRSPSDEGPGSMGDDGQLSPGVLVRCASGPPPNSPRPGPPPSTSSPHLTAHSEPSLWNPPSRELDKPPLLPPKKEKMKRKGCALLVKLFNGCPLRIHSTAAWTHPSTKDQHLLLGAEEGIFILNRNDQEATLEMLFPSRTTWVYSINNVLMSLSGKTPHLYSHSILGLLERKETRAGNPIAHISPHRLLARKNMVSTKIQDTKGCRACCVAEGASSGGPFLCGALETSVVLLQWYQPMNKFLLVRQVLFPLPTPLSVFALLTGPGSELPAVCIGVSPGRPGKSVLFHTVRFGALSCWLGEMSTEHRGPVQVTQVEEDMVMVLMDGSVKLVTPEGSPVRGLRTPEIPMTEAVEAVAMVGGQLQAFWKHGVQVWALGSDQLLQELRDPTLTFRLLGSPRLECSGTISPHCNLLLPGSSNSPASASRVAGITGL

[24] = target: off-target receptors, ion channels, and transporters (Homo sapiens, UniProt Q9UKP6); conditions: CEREP
Sequence of off-target receptors, ion channels, and transporters (Homo sapiens, UniProt Q9UKP6) (Q9UKP6 whole entry): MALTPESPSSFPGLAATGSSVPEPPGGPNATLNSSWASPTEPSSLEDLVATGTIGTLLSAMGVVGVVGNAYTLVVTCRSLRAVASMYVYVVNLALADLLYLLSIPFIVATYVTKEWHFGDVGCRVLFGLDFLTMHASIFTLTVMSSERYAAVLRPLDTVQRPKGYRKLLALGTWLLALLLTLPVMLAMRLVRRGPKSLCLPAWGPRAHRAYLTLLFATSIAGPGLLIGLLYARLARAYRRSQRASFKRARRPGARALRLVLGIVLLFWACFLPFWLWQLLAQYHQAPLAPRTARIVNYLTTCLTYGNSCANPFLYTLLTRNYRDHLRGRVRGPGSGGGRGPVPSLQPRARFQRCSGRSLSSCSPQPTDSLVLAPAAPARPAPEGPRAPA

Cc1c(Cl)c2c(Cl)c(C)c1-c1c(-c3ccc(F)cc3)sc3ncnc(c13)O[C@@H](C(=O)O)Cc1cc(ccc1OCc1ccnc(-c3ccc(OC[C@H]4COCCO4)cc3)n1)OC[C@@H](CN1CCN(C)CC1)O2 [ABBV-467]
JAK2 - IC50 [1]: > 10 µM
STK16 - IC50 [2]: > 10 µM
MAP4K4 - IC50 [3]: > 10 µM
EGFR - IC50 [4]: > 10 µM
Lck - IC50 [5]: > 10 µM
cMET - IC50 [6]: > 10 µM
Beta1 CHO Human - EC50 ([7]; Bioprofiling 6pt Ag): > 10 µM
Beta1 CHO Human - IC50 ([7]; Bioprofiling 6pt Antag, Norepinephrine): > 10 µM
EC50 ([8]; read-out: Alpha2A CHO Human - EC50, Bioprofiling 6pt Ag): > 10 µM
IC50 ([8]; read-out: Alpha2A CHO Human - IC50, Bioprofiling 6pt Antag, UK-14304): > 10 µM
BRAF - IC50 [9]: > 10 µM
CB1 CHO Human - EC50 ([10]; Bioprofiling 6pt Ag): > 10 µM
CB1 CHO Human - IC50 ([10]; Bioprofiling 6pt Antag, WIN 55,212-2): > 10 µM
ETA CHO Human - EC50 ([11]; Bioprofiling 6pt Ag): > 10 µM
ETA CHO Human - IC50 ([11]; Bioprofiling 6pt Antag, Endothelin-1 (ET-1)): > 10 µM
Akt1 - IC50 [12]: > 10 µM
Opioid mu CHO Human - EC50 ([13]; Bioprofiling 6pt Ag): > 10 µM
Opioid mu CHO Human - IC50 ([13]; Bioprofiling 6pt Antag, DAMGO): > 10 µM
TEC - IC50 [14]: > 10 µM
CDK8/Cyclin C - IC50 [15]: > 10 µM
Rsk2 - IC50 [16]: > 10 µM
JAK3 - IC50 [17]: > 10 µM
SIK1 - IC50 [18]: > 10 µM
BTK - IC50 [19]: > 10 µM
MST1 - IC50 [20]: > 10 µM
PDE3A Human - IC50 [21]: > 10 µM
TrkC - IC50 [22]: > 10 µM
TrkC - Ki [22]: >4.65 µM
MAP4K1 - IC50 [23]: > 10 µM
EC50 ([24]; read-out: Urotensin-II (UT1) Human (Functional - Agonist Effect) - EC50): > 30 µM
IC50 ([24]; read-out: Urotensin-II (UT1) Human (Functional - Antagonist Effect) - IC50): > 30 µM
